Test results: doi:10.1101/2022.02.04.479134, “A Suite of TMPRSS2 Assays for Screening Drug Repurposing Candidates as Potential Treatments of COVID-19” (bioRxiv, 2022)
“Also recorded” adds a separate entry of the source. Where a name gives a salt, the structure may show the parent alone. Read-outs that look alike come from different tables or passages of the source.

Legend:
[1] = Fluorescence counterassay (AMC quenching); details: 1 μM AMC; for Biochemical (fluorogenic counterassay) Max Response: 0% = 1 μM AMC, −100% = 0.1 μM AMC, <0% = quenching
Experimental: Assay buffer (50 mM Tris pH 8, 150 mM NaCl, 0.01% Tween20) was added to the full plate to give a total reaction volume of 5 μL. Detection was done using the PHERAstar with 340 nm excitation and 440 nm emission. Fluorescence was normalized relative to a negative control containing 7-amino-4-methylcoumarin at 0.1 μM (−100% activity, low fluorescence) and a positive control containing 7-amino-4-methylcoumarin at 1 μM (0% activity, high fluorescence).

Calu-3 cells [2] = details: for AC50: read-out: Calu-3 (cytotoxicity) AC50, N/D = Not Detected
[3] = target: T1, Recombinant Human TMPRSS2 (Homo sapiens, UniProt O15393); assay: biochemical; assay type: biochemical; details: for AC50: 10 μM Boc-QAR-AMC, 0.175 μM TMPRSS2, 1 h RT, 11-point dose-response in triplicate, read-out: Biochemical (fluorogenic) AC50
T1 sequence (O15393 106-492): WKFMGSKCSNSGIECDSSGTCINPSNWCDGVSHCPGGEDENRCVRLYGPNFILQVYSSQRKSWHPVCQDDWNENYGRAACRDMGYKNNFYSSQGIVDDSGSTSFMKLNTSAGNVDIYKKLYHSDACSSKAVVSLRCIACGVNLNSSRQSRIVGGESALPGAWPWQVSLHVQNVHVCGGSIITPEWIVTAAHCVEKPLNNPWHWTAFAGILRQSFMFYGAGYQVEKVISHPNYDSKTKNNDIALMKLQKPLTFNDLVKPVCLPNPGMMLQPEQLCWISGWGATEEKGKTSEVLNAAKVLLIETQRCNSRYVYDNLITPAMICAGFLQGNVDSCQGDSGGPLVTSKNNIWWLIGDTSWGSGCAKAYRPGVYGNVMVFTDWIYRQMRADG
Experimental: Buffer conditions were tested and optimized to include: 50 mM Tris pH 8, 150 mM NaCl and 0.01% Tween20.
Following 1 h of incubation at RT, detection was done using the PHERAstar with 340 nm excitation and 440 nm emission (Table 1).
To determine compound activity in the assay, the concentration–response data for each sample was plotted and modeled by a four-parameter logistic fit yielding IC50 and maximal response values. […] Data normalization, visualization, and curve fitting were performed using Prism (GraphPad, San Diego, CA).

[4] = target: T1, Recombinant Human TMPRSS2; assay: biochemical; assay type: biochemical; details: for AC50: 10 μM peptide, 0.4 μM TMPRSS2, 1 h RT, N/D = Not Detected, read-out: Biochemical (mass spectrometry) AC50; for IC50: biochemical assay not given, matches mass spectrometry values, read-out: IC50 inhibition of TMPRSS2
in vitro = details: human
recombinant TMPRSS2 = details: fluorogenic peptide substrate; cited from earlier work
[5] = tested on: H1N1 and H3N2 influenza virus strains; details: Calu-3 cells; cited from earlier work
Calu-3 cells [6] = details: cited from earlier work

Molecule	Biochemical (fluorogenic counterassay) Max Response [1]	Calu-3 (cytotoxicity) Max Response (Calu-3 cells [2]; ATP content, no PP)	AC50 [3]	AC50 [4]	other results
tannic acid					quenching of the AMC fluorescent signal [1]: ~ 30%
CN(C)C(=O)COC(=O)Cc1ccc(OC(=O)c2ccc(NC(=N)N)cc2)cc1 [Camostat]	-5%	0%			
NC[C@H]1CC[C@H](C(=O)Oc2ccc(CCC(=O)O)cc2)CC1 [Cetraxate HCl]	2.7%	0%	2.34 µM	5.52 µM	
CC(=O)N[C@@H](CC(C)C)C(=O)N[C@@H](CC(C)C)C(=O)N[C@H](C=O)CCCNC(=N)N [Leupeptin]	0.5%	0%	1.58 µM	0.72 µM	
CC(C)C[C@H](NC(=O)[C@H](Cc1ccccc1)NC(=O)c1cnccn1)B(O)O [Bortezomib]	4.6%	-97%	11.4 µM	9.77 µM	cytotoxicity towards Calu-3 cells (Calu-3 cells [2]; cytotoxicity counter-assay): high cytotoxicity; AC50 (in vitro): 0.29 µM
COC[C@H]1C[C@@H](c2ncc(-c3ccc4c(c3)COc3cc5c(ccc6nc([C@@H]7CC[C@H](C)N7C(=O)[C@@H](NC(=O)OC)C(C)C)[nH]c65)cc3-4)[nH]2)N(C(=O)[C@H](NC(=O)OC)c2ccccc2)C1 [Velpatasvir]	442%	0%	14.7 µM	13.2 µM	
N=C(N)NC(=O)c1nc(Cl)c(N)nc1N [Amiloride HCl]	26.6%	0%	8.29 µM	9 µM	
CCOC(=O)c1cc(=O)c2c(OCC(COc3cccc4oc(C(=O)OCC)cc(=O)c34)OC(=O)[C@@H](N)CCCCN)cccc2o1 [Cromoglicate lisetil]	-1.4%	0%	16.5 µM	25.1 µM	
NCCc1ccc(S(=O)(=O)F)cc1 [4-(2-aminoethyl)benzenesulfonyl fluoride]	23%	0%			
O=c1ccn([C@H]2C[C@H](O)[C@@H](CO)O2)c(=O)[nH]1 [Deoxyuridine]	19.3%	0%	16 µM		
Marizomib / Salinosporamide A	2.2%	-98%	14.7 µM	22.9 µM	AC50 (Calu-3 cells [2]; ATP content, no PP): 0.1 µM
G-007-LK	424%	0%	14.7 µM		
O=S(=O)(F)Cc1ccccc1 [Phenylmethanesulfonyl fluoride (PMSF), Phenylmethanesulfonyl fluoride]	-2.8%	0%			
CCOC(=O)c1ccc(OC(=O)CCCCCNC(=N)N)cc1 [Gabexate mesilate]	17.4%	0%			
N=C(N)c1ccc(OCCCCCOc2ccc(C(=N)N)cc2)cc1 [Pentamidine isethionate]	-0.05%		9.49 µM	7.6 µM	AC50 (in vitro): 18.6 µM
CN(C(=O)C(Cl)Cl)c1ccc(OC(=O)c2ccco2)cc1 [Diloxanide furoate]	-3.2%	0%	11.1 µM	21.7 µM	
Hydroxystilbamidine bis(methanesulfonate)	-6.4%		3.03 µM	2.31 µM	Calu-3 (cytotoxicity) Max Response (Calu-3 cells [2]): 0%
COC(=O)[C@H](Cc1cccc(C(=N)N)c1)[C@@H](C)NC(=O)c1ccc(-c2cc[n+]([O-])cc2)cc1 [Otamixaban]	-1%	0%			
Nc1nc2ncc(CNc3ccc(C(=O)N[C@@H](CCC(=O)O)C(=O)O)cc3)nc2c(=O)[nH]1 [Folic Acid]	14.5%	0%	13.3 µM		
N=C(N)c1ccc2cc(OC(=O)c3ccc(N=C(N)N)cc3)ccc2c1 [Nafamostat mesilate]	-1.9%	0%			
N=C(N)c1ccc2nc(-c3cc(CC(=O)N[C@@H](CC(=O)O)C(=O)O)cc(-c4cc(S(N)(=O)=O)ccc4O)c3O)[nH]c2c1 [PCI-27483]	61.3%	0%	1.8 µM	1.4 µM	
AGN194310	-9.2%	0%	7.9 µM		
N=C(N)c1cccc(CC(NS(=O)(=O)c2cccc(-c3ccc(Cl)cc3Cl)c2)C(=O)N2CCC(CCN)CC2)c1 (stereo not shown) [Cmpd 92 (Meyer)]	-5.6%	0%	0.41 µM	0.28 µM	IC50 [4]: ~0.3 µM; Ki (recombinant TMPRSS2): 0.0009 µM; replication of H1N1 and H3N2 influenza virus strains [5]: significantly reduced; cytotoxicity within Calu-3 cells (Calu-3 cells [6]): not cytotoxic
COC(=O)N[C@H](C(=O)N1CCC[C@H]1c1nc(-c2ccc(-c3ccc(-c4c[nH]c([C@@H]5CCCN5C(=O)[C@@H](NC(=O)OC)C(C)C)n4)cc3)cc2)c[nH]1)C(C)C [Daclatasvir dihydrochloride]	447%	0%	13.3 µM		
N=C(N)c1cccc(CC(NS(=O)(=O)c2cccc(-c3ccc(Cl)cc3Cl)c2)C(=O)N2CCC(NC(=O)NC3CCCCC3)CC2)c1 (stereo not shown) [Cmpd 114 (Meyer)]	-6.2%	0%	0.57 µM	0.26 µM	IC50 [4]: ~0.3 µM; Ki (recombinant TMPRSS2): 0.005 µM; cytotoxicity within Calu-3 cells (Calu-3 cells [6]): not cytotoxic
O=c1ccc2ccc(O)cc2o1 [7-Hydroxycoumarin]	1373%	0%	8.62 µM		inhibition of TMPRSS2 in the fluorogenic assay ([3]; at 40 μM): nearly full inhibition; inhibition of TMPRSS2 in the mass spectrometry detection assay ([4]; dose-response): no inhibition detected; also recorded: did not show inhibition
Dibromopropamidine Dihydrochloride	87%	-85%	4.4 µM	4.34 µM	AC50 (Calu-3 cells [2]; ATP content, no PP): 25.1 µM
